The text below walks through data of patent US12551475B2, “Methods and compositions for treating RNA viral infections” (Model Medicines, Inc., priority 2020, dated 2026).

The structures appear in SMILES notation. pEC50, pIC50, pKi: −log10 of the molar value. Like-named read-outs stand apart in the source and are kept apart here.

The conditions of series [1]: humans; cited from earlier work.
The conditions of series [2]: rats; cited from earlier work.
The conditions of series [3]: i.v., 28 day, dosed daily; cited from earlier work.
For series [4] the following is noted: mouse, IV; cited from earlier work.
The target in series [5] is T1, cytochrome P450 (CYP) 3A4 (Homo sapiens, UniProt P08684).
T1 construct: from tissue; host or cells: human liver microsomes
As to conditions: human liver microsomes; cited from earlier work. For orientation: Liver microsomes are vesicles of endoplasmic reticulum, rich in cytochrome P450 enzymes.

The conditions of series [6]: intravenously, cited from earlier work.
The test system of series [7] is SARS-CoV-2. As to conditions: cited from earlier work.
The conditions of series [8]: dog, IV; cited from earlier work.
The conditions of series [9]: in vivo, cited from earlier work.
The nature of series [10]: Uninfected host cell cytotoxicity counter screen. The format is cell-based, human. As to conditions: human, uninfected HeLa-ACE2 cells; uninfected HeLa-ACE2, 24 h. How it is done: (§1) Compounds were acoustically transferred into 1,536-well clear plates (Greiner Part. No. 789091). HeLa-ACE2 cells were maintained as described for the infection assay and seeded in the assay-ready plates at 400 cells/well in DMEM with 2% FBS and plates were incubated for 24 hours at 37 5% CO2. To assess cell viability, the Image-iT DEAD green reagent (Thermo Fisher) was used according to manufacturer instructions. Cells were fixed with 4% paraformaldehyde, and counterstained with DAPI. Fixed cells were imaged using the ImageXpress Micro Confocal High-Content Imaging System (Molecular Devices) with a 10× objective, and total live cells per well quantified in the acquired images using the Live Dead Application Module (MetaXpress).
(§2) Image analysis was carried out with MetaXpress (version 6.5.4.532). Primary in vitro screen and the host cell cytotoxicity counter screen data were uploaded to Genedata Screener, Version 16.0.3-Standard. Data were normalized to neutral (DMSO) […] inhibitor controls (2.5 μM remdesivir for antiviral effect and 10 μM puromycin for infected host cell toxicity). For the uninfected host cell cytotoxicity counter screen 40 μM puromycin (Sigma) was used as the positive control. For dose response experiments compounds were tested in technical triplicates on different assay plates and dose curves were fitted with the four parameter Hill Equation. Technical replicate data were analyzed using median condensing.
A general note: The purpose of a counterscreen is to sort out artefacts and off-target activity.

Series [11] concerns SARS-CoV-2. The settings on record: read-out: CPE EC50; cited from earlier work.
The next series concerns Vero E6 cells. As to conditions: cited from earlier work.
The subject of series [12] is SARS-CoV-2. Nature of the series: microbe, parasite or virus in culture. As to conditions: for pEC50: Severe acute respiratory syndrome coronavirus 2, HeLa-ACE2, 24 h; for EC50: Severe acute respiratory syndrome coronavirus 2, HeLa-ACE2, CoV-2/HeLa-ACE2 assay, unit uM.
Series [13] relates to SARS-CoV-2. The settings on record: for Hill coefficient (Nh): slope of the dose response curve.
The conditions of series [14]: monkey, IV; cited from earlier work.
For series [15] the following is noted: 30 mg/kg and 60 mg/kg oral gavage; cited from earlier work.
A further series has as its system HCT116 cells. As to conditions: cited from earlier work.
Another series deals with Scaber cells. As to conditions: cited from earlier work.
A further series relates to SIHA cells. As to conditions: cited from earlier work.
Another series relates to COLO205 cells. The settings on record: cited from earlier work.
In the next series the test system is MKN45 cells. The settings on record: cited from earlier work.
For another series, the system named is MCF-7 cells. As to conditions: cited from earlier work.
The target in series [16] is GABAA receptor α1 subunits (Homo sapiens, UniProt P14867). The settings on record: cited from earlier work.
The subject of series [17] is tropomyosin-related kinases TrkA, TrkB, and TrkC. As to conditions: cited from earlier work.
The next series deals with CUTO-3.29. As to conditions: cited from earlier work.
Another series has as its system MO-91. As to conditions: cited from earlier work.
In another series the test system is KM12. As to conditions: cited from earlier work.
Series [18] has as its target T2, LFA-1 interaction with ICAM-1 (Homo sapiens, UniProt P05107+P20701).
T2 construct: endogenous in cells; host or cells: Jurkat T cells
As to conditions: Jurkat T cells; cited from earlier work.

Series [19] relates to adhesion of HuT 78 cells to ICAM-1. As to conditions: cited from earlier work.
Another series deals with HIV-1. As to conditions: cited from earlier work.
The subject of a further series is BxPC-3 cancer cells. As to conditions: cited from earlier work.
In another series the test system is CEM cancer cells. As to conditions: cited from earlier work.
The test system of the next series is MP-2 cancer cells. As to conditions: cited from earlier work.
In another series the test system is L1210 cancer cells. As to conditions: cited from earlier work.
The target of a further series is adenosine A2 receptors. The settings on record: cited from earlier work.
For series [20] the following is noted: humans; cited from earlier work. The source holds these as a separate data set.
The subject of series [21] is HeLa-ACE2 cells. Nature of the series: Uninfected host cell cytotoxicity counter screen. The settings on record: uninfected HeLa-ACE2, 24 h. The class given is cell-based, human. How it is done:
as §1, §2

For series [22] the following is noted: mice; cited from earlier work.
Series [23] relates to HeLa-ACE2 cells. The settings on record: Bakowski et al, 2020; cited from earlier work.
Series [24] deals with SARS-CoV-2. As to conditions: cited from earlier work. This is another data set of the same source.
The conditions of series [25]: pig, in vivo; cited from earlier work.
Series [26] deals with pig striatum A2A receptor (Sus scrofa, UniProt K9IW67). The settings on record: cited from earlier work.
pig striatum A2A receptor, sequence (K9IW67 entry or part of it): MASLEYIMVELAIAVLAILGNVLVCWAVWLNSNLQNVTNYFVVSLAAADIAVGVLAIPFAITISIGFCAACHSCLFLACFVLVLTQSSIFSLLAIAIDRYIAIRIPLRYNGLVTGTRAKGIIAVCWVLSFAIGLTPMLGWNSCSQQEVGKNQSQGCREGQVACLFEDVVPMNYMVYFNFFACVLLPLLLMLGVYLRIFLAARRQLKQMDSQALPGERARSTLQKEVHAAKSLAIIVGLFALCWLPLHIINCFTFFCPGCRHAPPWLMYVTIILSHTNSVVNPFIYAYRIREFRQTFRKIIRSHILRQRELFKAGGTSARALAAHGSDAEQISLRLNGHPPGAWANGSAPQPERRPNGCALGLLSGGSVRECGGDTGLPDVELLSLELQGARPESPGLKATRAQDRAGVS

GABAA receptor α1 subunits, sequence (P14867 28-456): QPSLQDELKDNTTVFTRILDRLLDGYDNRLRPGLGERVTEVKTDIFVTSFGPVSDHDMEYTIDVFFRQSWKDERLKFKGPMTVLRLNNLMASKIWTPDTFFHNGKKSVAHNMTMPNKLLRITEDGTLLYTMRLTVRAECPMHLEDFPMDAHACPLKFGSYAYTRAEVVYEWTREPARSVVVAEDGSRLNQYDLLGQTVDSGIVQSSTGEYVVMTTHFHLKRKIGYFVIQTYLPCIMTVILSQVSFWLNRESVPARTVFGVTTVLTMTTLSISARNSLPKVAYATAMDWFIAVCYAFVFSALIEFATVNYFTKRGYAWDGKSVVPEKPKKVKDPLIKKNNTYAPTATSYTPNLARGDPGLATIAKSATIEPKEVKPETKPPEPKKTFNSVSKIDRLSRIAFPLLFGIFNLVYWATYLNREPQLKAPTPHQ
GABAA receptor α1 subunits, sequence (P47870 25-512 partner limits assumed): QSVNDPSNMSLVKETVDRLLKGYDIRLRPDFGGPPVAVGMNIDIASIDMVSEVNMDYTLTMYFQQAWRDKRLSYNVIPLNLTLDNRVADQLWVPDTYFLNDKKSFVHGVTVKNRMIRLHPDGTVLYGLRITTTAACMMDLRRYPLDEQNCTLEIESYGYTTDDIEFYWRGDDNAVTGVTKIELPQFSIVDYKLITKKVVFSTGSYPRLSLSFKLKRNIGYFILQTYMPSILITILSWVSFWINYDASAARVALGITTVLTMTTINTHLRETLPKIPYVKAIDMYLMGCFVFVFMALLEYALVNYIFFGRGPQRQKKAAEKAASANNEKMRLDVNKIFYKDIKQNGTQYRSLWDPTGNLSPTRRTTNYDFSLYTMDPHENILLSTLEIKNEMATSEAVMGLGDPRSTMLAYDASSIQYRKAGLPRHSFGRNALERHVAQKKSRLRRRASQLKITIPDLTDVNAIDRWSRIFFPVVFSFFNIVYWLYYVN
GABAA receptor α1 subunits, sequence (P18507 40-467 partner limits assumed): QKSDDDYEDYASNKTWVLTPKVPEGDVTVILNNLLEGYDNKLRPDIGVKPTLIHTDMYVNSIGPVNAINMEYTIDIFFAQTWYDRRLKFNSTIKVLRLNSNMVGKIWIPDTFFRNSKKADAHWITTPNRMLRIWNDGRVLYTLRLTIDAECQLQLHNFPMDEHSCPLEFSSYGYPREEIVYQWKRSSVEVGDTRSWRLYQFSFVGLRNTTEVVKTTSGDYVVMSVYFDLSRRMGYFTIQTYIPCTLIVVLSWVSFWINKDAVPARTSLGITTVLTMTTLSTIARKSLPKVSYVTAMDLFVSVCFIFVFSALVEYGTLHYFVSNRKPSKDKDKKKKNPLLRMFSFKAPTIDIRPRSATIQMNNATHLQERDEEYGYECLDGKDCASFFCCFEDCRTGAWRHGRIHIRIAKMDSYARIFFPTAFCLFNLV
T1 sequence (P08684 whole entry): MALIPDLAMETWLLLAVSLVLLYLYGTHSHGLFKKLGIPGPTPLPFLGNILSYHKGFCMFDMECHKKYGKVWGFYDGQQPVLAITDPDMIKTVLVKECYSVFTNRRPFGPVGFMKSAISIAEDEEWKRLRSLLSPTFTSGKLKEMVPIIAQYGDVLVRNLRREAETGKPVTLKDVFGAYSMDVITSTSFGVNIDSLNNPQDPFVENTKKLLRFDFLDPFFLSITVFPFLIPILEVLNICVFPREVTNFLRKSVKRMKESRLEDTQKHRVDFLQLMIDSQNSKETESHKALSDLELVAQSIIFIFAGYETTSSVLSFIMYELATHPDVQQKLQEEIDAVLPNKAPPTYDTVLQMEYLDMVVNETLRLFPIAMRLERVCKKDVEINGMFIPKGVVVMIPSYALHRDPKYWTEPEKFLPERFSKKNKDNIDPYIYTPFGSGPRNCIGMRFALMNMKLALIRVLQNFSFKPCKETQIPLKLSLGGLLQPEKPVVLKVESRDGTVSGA
T2 sequence (P20701 26-1170): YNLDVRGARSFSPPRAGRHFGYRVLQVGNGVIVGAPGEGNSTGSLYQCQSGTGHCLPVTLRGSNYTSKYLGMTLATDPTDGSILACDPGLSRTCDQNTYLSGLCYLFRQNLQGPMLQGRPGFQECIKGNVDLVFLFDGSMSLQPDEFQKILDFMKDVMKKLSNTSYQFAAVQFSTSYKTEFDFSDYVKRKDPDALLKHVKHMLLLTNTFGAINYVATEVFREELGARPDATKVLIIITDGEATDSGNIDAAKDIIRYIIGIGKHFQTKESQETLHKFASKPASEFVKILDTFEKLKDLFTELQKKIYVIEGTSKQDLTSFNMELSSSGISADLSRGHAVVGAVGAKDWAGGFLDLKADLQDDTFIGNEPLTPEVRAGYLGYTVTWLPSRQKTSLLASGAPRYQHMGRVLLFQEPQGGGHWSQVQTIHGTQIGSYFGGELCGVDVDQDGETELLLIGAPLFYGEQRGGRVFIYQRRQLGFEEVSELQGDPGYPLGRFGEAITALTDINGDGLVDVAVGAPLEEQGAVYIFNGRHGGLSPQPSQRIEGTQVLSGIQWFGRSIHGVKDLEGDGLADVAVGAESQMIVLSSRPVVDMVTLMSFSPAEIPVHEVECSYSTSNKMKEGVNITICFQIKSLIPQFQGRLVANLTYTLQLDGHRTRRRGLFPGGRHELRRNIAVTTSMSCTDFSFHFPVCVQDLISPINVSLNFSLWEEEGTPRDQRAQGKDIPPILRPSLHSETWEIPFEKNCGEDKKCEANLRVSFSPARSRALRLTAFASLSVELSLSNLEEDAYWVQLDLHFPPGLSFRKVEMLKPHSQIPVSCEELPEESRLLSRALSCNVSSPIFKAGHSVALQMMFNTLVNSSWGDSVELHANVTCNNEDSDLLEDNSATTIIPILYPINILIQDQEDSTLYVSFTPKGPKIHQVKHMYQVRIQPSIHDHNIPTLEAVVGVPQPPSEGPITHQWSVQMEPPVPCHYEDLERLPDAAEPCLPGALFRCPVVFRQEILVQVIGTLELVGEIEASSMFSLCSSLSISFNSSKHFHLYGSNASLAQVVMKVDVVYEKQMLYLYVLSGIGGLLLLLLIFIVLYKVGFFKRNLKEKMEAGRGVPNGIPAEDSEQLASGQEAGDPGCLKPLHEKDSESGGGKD
T2 sequence (P05107 23-769): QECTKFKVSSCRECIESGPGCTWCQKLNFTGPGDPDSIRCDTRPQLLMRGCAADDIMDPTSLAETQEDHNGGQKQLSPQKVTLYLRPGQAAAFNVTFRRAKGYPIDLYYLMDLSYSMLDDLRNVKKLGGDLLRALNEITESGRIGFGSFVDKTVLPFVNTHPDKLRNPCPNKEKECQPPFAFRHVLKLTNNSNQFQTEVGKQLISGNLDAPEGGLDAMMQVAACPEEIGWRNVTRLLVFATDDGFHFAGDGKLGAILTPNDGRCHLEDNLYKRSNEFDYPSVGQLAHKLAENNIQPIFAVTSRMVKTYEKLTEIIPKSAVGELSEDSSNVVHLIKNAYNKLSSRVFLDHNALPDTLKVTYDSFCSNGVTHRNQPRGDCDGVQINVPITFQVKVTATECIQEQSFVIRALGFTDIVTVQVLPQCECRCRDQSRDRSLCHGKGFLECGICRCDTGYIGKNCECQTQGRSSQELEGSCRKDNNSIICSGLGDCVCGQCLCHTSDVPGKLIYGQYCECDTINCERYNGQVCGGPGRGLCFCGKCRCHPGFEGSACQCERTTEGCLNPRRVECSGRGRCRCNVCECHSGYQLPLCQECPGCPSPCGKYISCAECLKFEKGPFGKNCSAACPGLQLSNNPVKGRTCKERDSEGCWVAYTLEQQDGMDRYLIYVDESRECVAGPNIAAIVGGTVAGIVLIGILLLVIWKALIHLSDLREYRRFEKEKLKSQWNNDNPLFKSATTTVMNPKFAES

In the case of `Cc1c(-c2ccc(O)cc2)n(Cc2ccc(OCCN3CCCCCC3)cc2)c2ccc(O)cc12` [Bazedoxifene], the safely tolerated dose was 20 mg/day in series [1] and 100 mg/kg/day in [2].
Take `CNCc1ccc(-c2cc(-c3nc(-c4ccc(S(=O)(=O)C(C)C)cc4)cnc3N)on2)cc1` [Berzosertib]: in [3], the STD10 is recorded as 30 mg/kg/day. For the same molecule, the entries for the “systemic clearance (CL)” value in series [4], in series [8] and in [14] were 82 mL/min/kg, 13 mL/min/kg and 29 mL/min/kg, respectively. The “enzyme mainly metabolizing the drug” value in [5] is recorded as “cytochrome P450 (CYP) 3A4”. Also, the “safe and well tolerated clinical dose, no DLTs observed” value in series [6] (once-weekly) is 480 mg/m2; in [6] (twice weekly), 240 mg/m2. Further, in the series on SARS-CoV-2 [7], the pIC50 was above 7.60. Further, the “half-life (t 1/2)” value in series [9] was “about 17 hours”. The molecule further returned a CC50 at 24 h in series [10] of 3.14 µM. Besides, the figures for the negative-log EC50 (pEC50) in the series with SARS-CoV-2 [11] and in the series on SARS-CoV-2 [12] were 6.15 and 6.94, respectively. Moreover, the CC50 in the series on Vero E6 cells was 11.2 µM. In the series on SARS-CoV-2 [12], the response was half-maximal at 0.114 µM (EC50). For the same molecule, the “activity in the HeLa-ACE2 cell-based SARS-CoV-2 assay (in words)” value with SARS-CoV-2 [13] is on record as “demonstrated activity”. Further, in the series on SARS-CoV-2 [13], the “Hill coefficient (Nh)” value is 1.485. In addition, in [15], the “tolerability (in words)” value was “no adverse effects or toxicity”.
As to `CCCCCOC(=O)Nc1nc(=O)n([C@@H]2O[C@H](C)[C@@H](O)[C@H]2O)cc1F` [Capecitabine, 5′-deoxy-5-fluoro-N-[(pentyloxy)carbonyl]-cytidine], the negative-log IC50 (pIC50) is below 3.00 in the series with HCT116 cells; 4.01 in the series on Scaber cells; 3.24 in the series on SIHA cells; below 3.00 in the series with COLO205 cells; 3.00 in the series on MKN45 cells; below 3.00 in the series on MCF-7 cells.
Take `CC(=O)N(C)c1cccc(-c2ccnc3c(C(=O)c4cccs4)cnn23)c1` [Indiplon, N-methyl-N-[3-[3-(2-thienylcarbonyl)pyrazolo[1,5-a]pyrimidin-7-yl]phenyl]-acetamide]: the negative logarithm of the EC50 (pEC50) in series [16] was 8.59.
As for `O=C(Nc1cnn2ccc(N3CCC[C@@H]3c3cc(F)ccc3F)nc12)N1CC[C@H](O)C1` [LOXO-101, (3S)—N-[5-[(2R)-2-(2,5-difluorophenyl)-1-pyrrolidinyl]pyrazolo[1,5-a]pyrimidin-3-yl]-3-hydroxy-1-pyrrolidinecarboxamide], the pIC50 in series [17] was 7.70 to 8.70; in the series with CUTO-3.29, above 7.00; in the series with MO-91, above 8.00; in the series on KM12, above 8.00.
For `CS(=O)(=O)c1cccc(C[C@H](NC(=O)c2c(Cl)cc3c(c2Cl)CCN(C(=O)c2ccc4ccoc4c2)C3)C(=O)O)c1` [Lifitegrast, N-[[2-(6-benzofuranylcarbonyl)-5,7-dichloro-1,2,3,4-tetrahydro-6-isoquinolinyl]carbonyl]-3-(methylsulfonyl)-L-phenylalanine], the negative logarithm of the IC50 (pIC50) was 8.53 in series [18] and 8.05 in series [19].
With `Cc1cccc(C)c1OCC(=O)N[C@@H](Cc1ccccc1)[C@@H](O)C[C@H](Cc1ccccc1)NC(=O)[C@H](C(C)C)N1CCCNC1=O` [Lopinavir, N-[(1S,3S,4S)-4-[[2-(2,6-dimethylphenoxy)acetyl]amino]-3-hydroxy-5-phenyl-1-(phenylmethyl)pentyl]tetrahydro-aS-(1-methylethyl)-2-oxo-1(2H)-pyrimidineacetamide], in the series on HIV-1, the pEC50 is 7.28 to 8.30.
As to `C[C@H](NP(=O)(OC[C@H]1O[C@@H](n2ccc(N)nc2=O)C(F)(F)[C@@H]1O)Oc1ccccc1)C(=O)OCc1ccccc1` (stereo partly drawn) [NUC-1031, N-(2′-deoxy-2′,2′-difluoro-P-phenyl-5′-cytidylyl)-L-alanine, phenylmethyl ester], the pIC50 in the series with BxPC-3 cancer cells was 7.40; in the series with CEM cancer cells, 7.52; in the series with MP-2 cancer cells, 7.22; in the series on L1210 cancer cells it was 7.46.
In the case of `CNC(=O)[C@H]1O[C@@H](n2cnc3c(NCc4cccc(I)c4)ncnc32)[C@H](O)[C@@H]1O` [Piclidenoson, 1-deoxy-1-[6-[[(3-iodophenyl)methyl]amino]-9H-purin-9-yl]-N-methyl-β-D-ribofuranuronamide], the negative logarithm of the Ki (pKi) at adenosine A2 receptors is 5.51.
As to `Cc1c(-c2ccc(O)cc2)n(Cc2ccc(OCCN3CCCCC3)cc2)c2ccc(O)cc12` [Pipendoxifene], the values for the safely tolerated dose entry in [20] and in series [22] were “up to 200 mg/daily” and “at least 20 mg/kg/day”, respectively. Further, in [9] (hamster), the “half-life (t ½)” value is recorded as 30 h. For the same molecule, the “half-life (t 1/2)” value in series [9] is 15.8 to 27.3 h. In the series with HeLa-ACE2 cells [21], this molecule displayed a CC50 above 39.8 µM. The molecule also showed a negative-log EC50 (pEC50) in the series with SARS-CoV-2 [12] of 5.08. Besides, the EC50 in the series with SARS-CoV-2 [12] stood at 8.24 µM; in the series on SARS-CoV-2 [13] (CoV-2/HeLa-ACE2 assay, unit uM), 8.42 µM. Also, the EC90 with SARS-CoV-2 [12] (Severe acute respiratory syndrome coronavirus 2, HeLa-ACE2, read-out: EC90 (Hill equation, Equation I)) is 15 µM; in the series with SARS-CoV-2 [12] (Severe acute respiratory syndrome coronavirus 2, HeLa-ACE2, read-out: EC90 range from both equations), 14.3 to 15 µM; with SARS-CoV-2 [13], 14.3 µM. For the same molecule, in the series on SARS-CoV-2 [13], the “activity in the HeLa-ACE2 cell-based SARS-CoV-2 assay (in words)” value was “demonstrated activity”. The EC10 in the series with SARS-CoV-2 [13] (derived from the graph) came out at 5.012 µM. Besides, the “Hill coefficient (Nh)” value in the series on SARS-CoV-2 [13] stood at 4.
For the molecule `Nc1nc(Nc2ccc3c(c2)CC[C@@H](N2CCCC2)CC3)nn1-c1cc2c(nn1)-c1ccccc1CCC2` [R-428], the CC50 with HeLa-ACE2 cells [23] is above 40 µM. Further, in the series with SARS-CoV-2 [24] (Bakowski et al, 2020), the “synergy score with remdesivir against SARS-CoV-2” value is on record as 7.22. Further, the pEC50 with SARS-CoV-2 [24] (ReFRAME screen, same methods (Bakowski et al, 2020)) is 5.54.
Consider `CNC(=O)c1cnn(-c2nc(N)c3ncn([C@@H]4O[C@H](CO)[C@@H](O)[C@H]4O)c3n2)c1` [Regadenoson, 2-[4-[(methylamino)carbonyl]-1H-pyrazol-1-yl]-adenosine], for which, in series [25], the half-time to reversal was 1.9 to 2.6 min and the “increase of coronary blood flow” value is listed as 3.4- to 3.8 fold. In series [26], the pKi is 8.96.

Broadly, the pIC50 is the IC50 on a negative log10 scale, so that one unit is a factor of ten. The CC50 is the concentration giving 50% cytotoxicity. As usually defined, the pEC50 is the EC50 on a negative log10 scale, so that one unit is a factor of ten. As a reminder, the EC50 is the concentration at which the effect is half-maximal. By pKi is commonly meant the negative decadic logarithm of the Ki, by convention in mol/L. By EC90 is commonly meant the concentration at which the effect reaches the 90% level. In general, EC10 refers to the point of the concentration-response curve where the effect stands at 10%.
